# Measurements taken from patent US6517812B1, “Inhibition of psychostimulant-induced and nicotine-induced craving” (The General Hospital Corporation, priority 1997, dated 2003).
# Where “and” joins values, the source holds several entries; their conditions need not be identical. Identical values can stand only once. Like-named read-outs stand apart in the source and are kept apart here.
# What was measured:
# rat frontal cortex [1] = assay: BOLD fMRI in drug-naive rat after IV cocaine; assay type: in vivo
# Protocol: All procedures were carried out in accordance with NIH guidelines. Male Harlan Sprague-Dawley rats (225-300 gm) were anesthetized briefly with 1.5% halothane in oxygen for insertion of left femoral arterial and venous cannulae and placement of tracheostomy for mechanical ventilation (using a 16 gauge intravenous catheter, Inste-W, Becton Dickinson, Sandy, Utah). All wounds were infiltrated with 1% lidocaine before incision. Following surgery, the inspired halothane concentration was reduced to 0.7% and rats were paralyzed with 2 mg/kg intravenous pancuronium, followed by a continuous intravenous infusion of pancuronium at 2 mg/kg/hr. Pancuronium was dissolved in normal saline administered at 5 ml/kg/hr. Rats were mechanically ventilated (in a small animal volume controlled ventilator, Harvard Apparatus, Inc., South Natick, Mass.) with a 80/20 air/oxygen mixture, an inspiratory to expiratory ratio of 1:1, and an initial tidal volume of 3.0 ml at a rate of 40 breaths per minute. […] Arterial blood samples (150 μl) withdrawn from cannula were analyzed for arterial partial pressures of oxygen, carbon dioxide, and pH (Ciba-Coming Model 1304) before administration of drugs, and at the end of each experiment before sacrifice, to ensure animal stability. Arterial blood pressure and rectal temperature were monitored throughout the experiment. […]
# [2] = Plasma cocaine levels after IV infusion (liquid chromatography with photodiode array detection); assay type: in vivo; conditions: human, 0.6 mg/kg IV; for Cmax: plasma, iv
# Protocol: Sequential 4 ml venous blood samples were collected immediately before and at 1, 3, 5, 10, 15, 30, 60, 90 and 120 minutes following each infusion. The 120 minute sample for the first infusion was also the pre-infusion sample for the second infusion.
# Plasma/Urine Levels: Cocaine quantitative assays were performed by the MGH Clinical Chemistry Laboratory using a liquid chromatography with photodiode array detection method they developed (Puopolo et al., 1992, Clin. Chem. 38:1838-1842), with minor modifications (flow rate increased from 2.0 to 2.6 ml/minute and LCPCN column length increased from 150 to 250 mm). Intra-assay imprecision at […] for cocaine is 5.1%, 5.7% and 6.6% respectively.
# [3] = tested on: Male Harlan Sprague-Dawley rats; assay: Arterial blood pressure and heart rate monitoring in rat
# Protocol: All procedures were carried out in accordance with NIH guidelines. Male Harlan Sprague-Dawley rats (225-300 gm) were anesthetized briefly with 1.5% halothane in oxygen for insertion of left femoral arterial and venous cannulae and placement of tracheostomy for mechanical ventilation (using a 16 gauge intravenous catheter, Inste-W, Becton Dickinson, Sandy, Utah). All wounds were infiltrated with 1% lidocaine before incision. Following surgery, the inspired halothane concentration was reduced to 0.7% and rats were paralyzed with 2 mg/kg intravenous pancuronium, followed by a continuous intravenous infusion of pancuronium at 2 mg/kg/hr. Pancuronium was dissolved in normal saline administered at 5 ml/kg/hr. Rats were mechanically ventilated (in a small animal volume controlled ventilator, Harvard Apparatus, Inc., South Natick, Mass.) with a 80/20 air/oxygen mixture, an inspiratory to expiratory ratio of 1:1, and an initial tidal volume of 3.0 ml at a rate of 40 breaths per minute. Ventilation parameters were adjusted to maintain normal arterial blood gases (pH=7.40±0.01, PaCO2=40±2, PaO2=145±10). Arterial blood samples (150 μl) withdrawn from cannula were analyzed for arterial partial pressures of oxygen, carbon dioxide, and pH (Ciba-Coming Model 1304) before administration of drugs, and at the end of each experiment before sacrifice, to ensure animal stability. Arterial blood pressure and rectal temperature were monitored throughout the experiment. […] Rats torsos were wrapped in two heating blankets (Gaymar, Orchid Park, N.Y.) circulating warm water to maintain core temperature at 37-38° C. […]
# Regional cortical blood flow was determined by LDF (Perimed, PF2B, Stockholm, Sweden) as described previously (Ayata, et al., 1996, J. Cereb. Blood Flow Metab., 16:539-541). […] All data were collected, stored, and analyzed using MacLab/8 data acquisition and analysis system (ADInstruments, Mountain View, Calif.). Arterial pressure was continuously monitored and the data stored; heart rate was calculated from arterial pressure pulses by the data acquisition software. […]
# [4] = tested on: human brain, limbic and paralimbic regions; assay: BOLD fMRI of brain activation after cocaine infusion (KS maps, pre vs post infusion); assay type: in vivo; conditions: voxels p<10^−5, four subjects
# Protocol: Scanning was performed with a quadrature head-coil and a 1.5 T MR scanner (General Electric) modified for echo-planar imaging (Advanced NMR). Imaging involved the following protocol. First, a sagittal localizer scan [conventional T1-weighted spoiled gradient refocused gradient echo (SPGR) sequence; through-plane resolution=2.8 mm; 60 slices] was performed to orient, for subsequent scans, 15 contiguous axial slices covering the whole brain. This scan was also used as the structural scan for Talairach transformation. Next, an automated shimming technique was used to optimize B0 homogeneity (Reese et al., 1995, J. Magn. Reson. Imaging 5:739-745). This was followed by a SPGR T1-weighted flow-compensated scan (resolution=1.6 mm×1.6 mm×8 mm) scan, which was primarily obtained to aid Talairach transformation during data analysis (see Breiter et al., 1996, Arch. Gen. Psychiatry 53:595-606). The fourth scan was a T1-weighted echo planar inversion recovery sequence (TI=1200 msec, in-plane resolution=1.57 mm) for high-resolution structural images to be used in preliminary statistical maps, but not with Talairach transformed or averaged maps. Finally, BOLD imaging was performed using an asymmetric spin echo T2*-weighted sequence (TR=8000, TE=50, 180 refocusing pulse offset by −25 ms; FOV=40×20 cm; in-plane resolution=3.125 mm; through-plane resolution=8 mm; 15 contiguous axial slices covering the whole brain) to measure ‘activation’ (local changes in blood flow and oxygenation) (Kwong et al., 1992, Proc. Natl. Acad. Sci. 89:5675-5679; Ogawa et al., 1992, Proc. Natl. Acad. Sci. 89:5957-5955; Bandettini et al., 1992, Magn. Reson. Med. 25:390-397). Images were acquired interleaved for 136 time points for each infusion.
# Motion correction: To reduce head motion, each subject was positioned using a bitebar, and echo-planar data was motion corrected using an algorithm (Jiang et al., 1995, Hun. Brain Mapp. 3:1-12) adapted from Woods et al (1992), and described elsewhere (Breiter et al., 1996, Arch. Gen. Psychiatry 53:595-606). […] After motion correction, time-series data were inspected to assure that no data set evidenced residual motion in the form of cortical rim or ventricular artifacts >1 voxel.
# Talairach transformation: Each individual's set of infusion related functional images, along with the associated conventional structural scans, were transformed into Talairach space (Talairach et al., 1988, New York: Thieme Medical Publishers; Breiter et al., 1996, Arch. Gen. Psychiatry 53:595-606; Breiter et al., 1996, Neuron 17:875-887) and resliced in the coronal orientation over 57 slices with isotropic voxel dimensions (x,y,z=3.125 mm). […]
# rat frontal cortex [5] = assay: Laser Doppler-flowmetry (LDF) of regional cortical blood flow (CBF) in rat; assay type: in vivo
# Protocol: All procedures were carried out in accordance with NIH guidelines. Male Harlan Sprague-Dawley rats (225-300 gm) were anesthetized briefly with 1.5% halothane in oxygen for insertion of left femoral arterial and venous cannulae and placement of tracheostomy for mechanical ventilation (using a 16 gauge intravenous catheter, Inste-W, Becton Dickinson, Sandy, Utah). All wounds were infiltrated with 1% lidocaine before incision. Following surgery, the inspired halothane concentration was reduced to 0.7% and rats were paralyzed with 2 mg/kg intravenous pancuronium, followed by a continuous intravenous infusion of pancuronium at 2 mg/kg/hr. Pancuronium was dissolved in normal saline administered at 5 ml/kg/hr. Rats were mechanically ventilated (in a small animal volume controlled ventilator, Harvard Apparatus, Inc., South Natick, Mass.) with a 80/20 air/oxygen mixture, an inspiratory to expiratory ratio of 1:1, and an initial tidal volume of 3.0 ml at a rate of 40 breaths per minute. Ventilation parameters were adjusted to maintain normal arterial blood gases (pH=7.40±0.01, PaCO2=40±2, PaO2=145±10). Arterial blood samples (150 μl) withdrawn from cannula were analyzed for arterial partial pressures of oxygen, carbon dioxide, and pH (Ciba-Coming Model 1304) before administration of drugs, and at the end of each experiment before sacrifice, to ensure animal stability. Arterial blood pressure and rectal temperature were monitored throughout the experiment. […] Rats torsos were wrapped in two heating blankets (Gaymar, Orchid Park, N.Y.) circulating warm water to maintain core temperature at 37-38° C. To minimize MRI motion artifact, rats were placed into a custom plastic cradle attached to a head frame machined from delrin plastic (David Kopf Instruments, Fremont, Calif.); heads were fixed with plastic screws inserted into the ear canals and a bar inserted under the front incisors. Rat heads were shaved and covered with gel toothpaste to reduce magnetic susceptibility artifacts arising from air-tissue interfaces; ear canals and oropharynx were also filled with toothpaste. A surface coil was secured over the dorsal surface of the head before positioning the animal in the magnet center. Cocaine (RBI, Natick, Mass.), SCH-23390 (RBI, Natick, Mass.), and cocaine methiodide (NIDA, Bethesda, Md.) were dissolved in normal saline and administered in a 0.5 ml volume at a rate of 1 ml/min via the femoral vein. Sixty minutes passed before injections of cocaine were repeated.
# Regional cortical blood flow was determined by LDF (Perimed, PF2B, Stockholm, Sweden) as described previously (Ayata, et al., 1996, J. Cereb. Blood Flow Metab., 16:539-541). Rats (n=8) were prepared exactly as for dynamic MR studies and positioned in a standard stereotaxic head frame. With the scalp incised and retracted, two holes (1-2 mm in diameter) were drilled through the skull 2 mm lateral to midline; one hole was 2 mm anterior to bregma overlying frontal cortex, and the other was 8 mm posterior to bregma to examine occipital cortex. The flow probe was positioned directly upon exposed dura mater in a puddle of mineral oil. […] All data were collected, stored, and analyzed using MacLab/8 data acquisition and analysis system (ADInstruments, Mountain View, Calif.). Arterial pressure was continuously monitored and the data stored; heart rate was calculated from arterial pressure pulses by the data acquisition software. […]
# [6] = rat frontal cortex, cocaine 0.5 mg/kg IV
smiles,measurement,setting,value
COC(=O)[C@H]1[C@@H](OC(=O)c2ccccc2)C[C@@H]2CC[C@H]1N2C [cocaine],time of return of BOLD contrast to baseline,"rat frontal cortex [1]; cocaine 0.5 mg/kg IV, after infusion",20 min
same,maximal R2 (BOLD contrast),rat frontal cortex [1]; cocaine 1 mg/kg IV,2.5 ± 0.6 s⁻¹
same,"time to peak cocaine plasma concentration, mean±SD",[2]; 4 subjects with re-test experiments,6.0 ± 2.9 min
same,"time to peak cocaine plasma concentration, mean±SD","[2]; initial series of experiments, 0.6 mg/kg",7.6 ± 4.2 min and ~7 min
same,Cmax,"[2]; 0.6 mg/kg, n=7, range over subjects, read-out: Peak plasma cocaine levels (Cmax), range",197 to 893 ng/mL
same,Cmax,"[2]; 0.6 mg/kg, n=7 subjects with complete data, read-out: Peak plasma cocaine levels (Cmax), mean",389 ± 233 ng/mL
same,adverse cardiovascular response,[3]; cocaine doses above 5 mg/kg IV,profound hypotension and cardiac arrhythmia
same,transient increase in arterial blood pressure,[3]; cocaine infusion 0.5 mg/kg,5-10 mm Hg
same,"percent signal change, NAc/SCC Left",[4]; retest condition,2.3%
same,"percent signal change, NAc/SCC Right",[4]; retest condition,2.1%
same,"percent signal change, NAc/SCC Left",[4]; test condition,3.8%
same,"percent signal change, NAc/SCC Right",[4]; test condition,2.4%
same,maximum increase of cortical CBF over baseline,rat frontal cortex [5]; [6],41%
same,time to peak CBF,rat frontal cortex [5]; [6],approximately 3.5 minutes
same,time of return of CBF to baseline,"rat frontal cortex [5]; rat frontal cortex, cocaine 0.5 mg/kg IV, post infusion",≤ 25 min
same,maximum elevation of frontal cortex blood flow,"rat frontal cortex [5]; rat, LDF, after 1 mg/kg cocaine",35±3
